± gives the expanded uncertainty stated by the source.

Consider five compounds from the NIST ThermoML archive (doi:10.1021/je900404r).

The conditions of this series: 101 kPa, Liquid, Vibrating tube method.

In general, mass density refers to mass per unit of volume. For `ClCCCCl` [1,3-dichloropropane], the mass density by setting is: (288.15 K) 1191.93 ± 0.42 kg/m3; (298.15 K) 1179.58 ± 0.42 kg/m3; (308.15 K) 1167.16 ± 0.42 kg/m3; (318.15 K) 1154.67 ± 0.41 kg/m3.

Consider `ClCCCCCl` [1,4-dichlorobutane], for which the mass density is, setting by setting: (288.15 K) 1143.49 ± 0.41 kg/m3; (298.15 K) 1132.57 ± 0.41 kg/m3; (308.15 K) 1121.61 ± 0.41 kg/m3; (318.15 K) 1110.61 ± 0.41 kg/m3.

For the compound `CCCCCl` [1-chlorobutane], the mass density reads like this: (288.15 K) 892.1 ± 0.41 kg/m3; (298.15 K) 881.05 ± 0.41 kg/m3; (308.15 K) 869.86 ± 0.41 kg/m3; (318.15 K) 858.52 ± 0.41 kg/m3.

For `O=C1CCCCC1` [cyclohexanone], the mass density (288.15 K) is reported as 951.69 ± 0.41 kg/m3, the mass density (298.15 K) was 942.76 ± 0.41 kg/m3, the mass density (308.15 K) turned out to be 933.8 ± 0.41 kg/m3 and the mass density (318.15 K) worked out at 924.82 ± 0.41 kg/m3.

For the compound `ClC(Cl)Cl` [trichloromethane], the mass density came to 1491.86 ± 0.46 kg/m3 (288.15 K), 1473.16 ± 0.46 kg/m3 (298.15 K), 1454.07 ± 0.46 kg/m3 (308.15 K) and 1434.72 ± 0.46 kg/m3 (318.15 K).
